The target in this assay is FXR (Homo sapiens (Human), UniProt Q96RI1). Nature of the assay: transient human FXR/Gal4-luciferase reporter assay. It is filed as cell-based. The method, boiled down: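 Compound exposure ran overnight at 37 °C and activity was measured as luminescence with Steady-Glo reagent. The cells were a HEK293 line stably expressing firefly luciferase under five Gal4 response elements. They were transiently transfected, one night beforehand, with a plasmid encoding Gal4 DNA-binding domain fused to the human FXR ligand-binding domain.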
FXR, sequence (Q96RI1 262-486): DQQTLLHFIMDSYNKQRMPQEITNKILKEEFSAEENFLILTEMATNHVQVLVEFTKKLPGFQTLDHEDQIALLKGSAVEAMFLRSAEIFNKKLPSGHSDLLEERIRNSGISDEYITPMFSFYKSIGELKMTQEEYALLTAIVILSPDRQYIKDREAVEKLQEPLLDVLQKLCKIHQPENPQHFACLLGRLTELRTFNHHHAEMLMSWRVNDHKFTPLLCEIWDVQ
In general terms: Reporter assays use an easily measured gene product as a stand-in for the process of interest.

[1] abbreviates: Gal4-hFXR fusion construct, HEK293 reporter cells, response relative to 8 μM GW-4064.

22 compounds from patent US11254663B2 (BRISTOL-MYERS SQUIBB COMPANY, priority 2019, dated 2022) can be followed below.

Where two headings read alike, the source gives them in different places.

One may read the EC50 as the midpoint of the concentration-response curve. Read a low EC50 as higher potency in that assay. On to `CC(C)(O)c1ccc(-c2cccc(N(CC34CCC(c5noc(C(C)(C)F)n5)(CC3)CC4)C(=O)NC3CCC(O)(C(F)(F)F)CC3)c2)cc1` (single isomer, unassigned) [Example 600, 1-((4-(5-(2-fluoropropan-2-yl)-1,2,4-oxadiazol-3-yl)bicyclo[2.2.2]octan-1-yl)methyl)-3-(4-hydroxy-4-(trifluoromethyl)cyclohexyl)-1-(4′-(2-hydroxypropan-2-yl)-[1,1′-biphenyl]-3-yl) urea], for which the EC50 under setting [1] was 16 nM.

Under setting [1], `O=C(N(CC12CCC(c3nc(C4CC4)no3)(CC1)CC2)c1cccc(-c2nc(C(F)(F)F)ccc2F)c1)C12CC(F)(C1)C2` [Example 293, N-((4-(3-cyclopropyl-1,2,4-oxadiazol-5-yl)bicyclo[2.2.2]octan-1-yl)methyl)-3-fluoro-N-(3-(3-fluoro-6-(trifluoromethyl)pyridin-2-yl)phenyl)bicyclo[1.1.1]pentane-1-carboxamide] had an EC50 of 679 nM.

On to `CC(C)Oc1ccc(-c2cc(N(CC34CCC(c5noc(C6(F)CC6)n5)(CC3)CC4)C(=O)[C@H]3C[C@](O)(C(F)(F)F)C3)ccc2F)cc1` [Example 581, (cis)-N-(6-fluoro-4′-isopropoxy-[1,1′-biphenyl]-3-yl)-N-((4-(5-(1-fluorocyclopropyl)-1,2,4-oxadiazol-3-yl)bicyclo[2.2.2]octan-1-yl)methyl)-3-hydroxy-3-(trifluoromethyl)cyclobutane-1-carboxamide], for which the concentration for a half-maximal effect (EC50) under setting [1] worked out at 74 nM.

In turn, `CC(C)(O)c1ccc(-c2cccc(N(CC34CCC(c5noc(C(C)(C)F)n5)(CC3)CC4)C(=O)NCC(F)(F)CO)c2)cc1` [Example 646, 3-(2,2-difluoro-3-hydroxypropyl)-1-((4-(5-(2-fluoropropan-2-yl)-1,2,4-oxadiazol-3-yl)bicyclo[2.2.2]octan-1-yl)methyl)-1-(4′-(2-hydroxypropan-2-yl)-[1,1′-biphenyl]-3-yl)urea] registered an EC50 of 270 nM.

Compound `CCOc1ccc(-c2ccnc(N(CC34CCC(c5noc(C(C)(C)C)n5)(CC3)CC4)C(=O)C34CC(F)(C3)C4)c2)cc1` [Example 532, N-((4-(5-(tert-butyl)-1,2,4-oxadiazol-3-yl)bicyclo[2.2.2]octan-1-yl)methyl)-N-(4-(4-ethoxyphenyl)pyridin-2-yl)-3-fluorobicyclo[1.1.1]pentane-1-carboxamide] yielded a half-maximal effective concentration (EC50) of 86 nM.

As for `CC(C)(C)c1nc(C23CCC(CN(C(=O)C45CC(F)(C4)C5)c4cccc(-c5ccc(NS(C)(=O)=O)cc5)c4)(CC2)CC3)no1` [Example 438, N-((4-(5-(tert-butyl)-1,2,4-oxadiazol-3-yl)bicyclo[2.2.2]octan-1-yl)methyl)-3-fluoro-N-(4′-(methylsulfonamido)-[1,1′-biphenyl]-3-yl)bicyclo[1.1.1]pentane-1-carboxamide], under setting [1], the EC50 was found to be 46 nM.

`CC(C)(C)c1nc(C23CCC(CN(C(=O)C45CC(F)(C4)C5)c4cc(-c5ncc(OC(F)F)cn5)ccn4)(CC2)CC3)no1` [Example 541, N-((4-(5-(tert-butyl)-1,2,4-oxadiazol-3-yl)bicyclo[2.2.2]octan-1-yl)methyl)-N-(4-(5-(difluoromethoxy)pyrimidin-2-yl)pyridin-2-yl)-3-fluorobicyclo[1.1.1]pentane-1-carboxamide] had an EC50 under setting [1] of 18 nM.

Regarding `CC1(C(=O)N(CC23CCC(c4noc(C(C)(C)C)n4)(CC2)CC3)c2cccc(-c3ccc(OC(F)F)cc3)c2)COC1` [Example 515, N-((4-(5-(tert-butyl)-1,2,4-oxadiazol-3-yl)bicyclo[2.2.2]octan-1-yl)methyl)-N-(4′-(difluoromethoxy)-[1,1′-biphenyl]-3-yl)-3-methyloxetane-3-carboxamide], under setting [1], a half-maximal response (EC50) required 357 nM.

For `Cc1nc2ccc(-c3cncc(N(CC45CCC(c6nc(C7CC7)no6)(CC4)CC5)C(=O)C45CC(F)(C4)C5)c3)cc2s1` [Example 425, N-((4-(3-cyclopropyl-1,2,4-oxadiazol-5-yl)bicyclo[2.2.2]octan-1-yl)methyl)-3-fluoro-N-(5-(2-methylbenzo[d]thiazol-6-yl)pyridin-3-yl)bicyclo[1.1.1]pentane-1-carboxamide], it took 198 nM to reach a half-maximal effect under setting [1] (EC50).

In the case of `CC(C)(F)c1nc(C23CCC(CN(C(=O)O[C@H]4C[C@](O)(C(F)(F)F)C4)c4cc(-c5ccc(OC(F)F)cc5)c(F)cn4)(CC2)CC3)no1` [Example 629, (cis)-3-hydroxy-3-(trifluoromethyl)cyclobutyl (4-(4-(difluoromethoxy)phenyl)-5-fluoropyridin-2-yl)((4-(5-(2-fluoropropan-2-yl)-1,2,4-oxadiazol-3-yl)bicyclo[2.2.2]octan-1-yl)methyl)carbamate], under setting [1], the response was half-maximal at 99 nM (EC50).

`Cc1nc2ccc(-c3ccnc(N(CC45CCC(c6nc(C7CC7)no6)(CC4)CC5)C(=O)C45CC(F)(C4)C5)c3)cc2s1` [Example 549, N-((4-(3-cyclopropyl-1,2,4-oxadiazol-5-yl)bicyclo[2.2.2]octan-1-yl)methyl)-3-fluoro-N-(4-(2-methylbenzo[d]thiazol-6-yl)pyridin-2-yl)bicyclo[1.1.1]pentane-1-carboxamide] returned a half-maximal effective concentration (EC50) under setting [1] of 36 nM.

The compound `CCOc1ncc(-c2ccnc(N(CC34CCC(c5nc(C6CC6)no5)(CC3)CC4)C(=O)C34CC(F)(C3)C4)c2)cn1` [Example 548, N-((4-(3-cyclopropyl-1,2,4-oxadiazol-5-yl)bicyclo[2.2.2]octan-1-yl)methyl)-N-(4-(2-ethoxypyrimidin-5-yl)pyridin-2-yl)-3-fluorobicyclo[1.1.1]pentane-1-carboxamide] returned an EC50 under setting [1] of 111 nM.

With `COc1nccc(-c2cccc(N(CC34CCC(c5nc(C6CC6)no5)(CC3)CC4)C(=O)C34CC(F)(C3)C4)c2)n1` [Example 242, N-((4-(3-cyclopropyl-1,2,4-oxadiazol-5-yl)bicyclo[2.2.2]octan-1-yl)methyl)-3-fluoro-N-(3-(2-methoxypyrimidin-4-yl)phenyl)bicyclo[1.1.1]pentane-1-carboxamide], under setting [1], the EC50 stood at 276 nM.

As to `COc1ccc(-c2cccc(N(CC34CCC(c5nc(C6CC6)no5)(CC3)CC4)C(=O)C34CC(F)(C3)C4)c2)cc1` [Example 282, N-((4-(3-cyclopropyl-1,2,4-oxadiazol-5-yl)bicyclo[2.2.2]octan-1-yl)methyl)-3-fluoro-N-(4′-methoxy-[1,1′-biphenyl]-3-yl)bicyclo[1.1.1]pentane-1-carboxamide], a half-maximal response under setting [1] (EC50) required 19 nM.

For the compound `Cc1nc2ccc(-c3cccc(N(CC45CCC(c6nc(C7CC7)no6)(CC4)OC5)C(=O)C4CCC(F)(F)C4)c3)cc2s1` (stereo not shown) [Example 567, N-((1-(3-cyclopropyl-1,2,4-oxadiazol-5-yl)-2-oxabicyclo[2.2.2]octan-4-yl)methyl)-3,3-difluoro-N-(3-(2-methylbenzo[d]thiazol-6-yl)phenyl)cyclopentane-1-carboxamide], the response was half-maximal at 432 nM (EC50).

In the case of `CC(C)(O)c1ccc(-c2cccc(N(C[C@]34CC[C@](c5noc(C(C)(C)F)n5)(CC3)CC4)C(=O)C3CC(O)(C(F)(F)F)C3)c2)cc1` (stereo partly drawn) [Example 576, (cis)-N-((4-(5-(2-fluoropropan-2-yl)-1,2,4-oxadiazol-3-yl)bicyclo[2.2.2]octan-1-yl)methyl)-3-hydroxy-N-(4′-(2-hydroxypropan-2-yl)-[1,1′-biphenyl]-3-yl)-3-(trifluoromethyl)cyclobutane-1-carboxamide], under setting [1], the EC50 stood at 19 nM.

Under setting [1], `Cc1cc(-c2cccc(N(CC34CCC(c5nc(C6CC6)no5)(CC3)CC4)C(=O)C34CC(F)(C3)C4)c2)cn2ncnc12` [Example 266, N-((4-(3-cyclopropyl-1,2,4-oxadiazol-5-yl)bicyclo[2.2.2]octan-1-yl)methyl)-3-fluoro-N-(3-(8-methyl-[1,2,4]triazolo[1,5-a]pyridin-6-yl)phenyl)bicyclo[1.1.1]pentane-1-carboxamide] returned a concentration for a half-maximal effect (EC50) of 691 nM.

Regarding `Cc1nc2ccc(-c3cccc(N(CC45CCC(c6ccc(C#N)cc6)(CC4)OC5)C(=O)C45CC(F)(C4)C5)c3)cc2s1` [Example 568, N-((1-(4-Cyanophenyl)-2-oxabicyclo[2.2.2]octan-4-yl)methyl)-3-fluoro-N-(3-(2-methylbenzo[d]thiazol-6-yl)phenyl)bicyclo[1.1.1]pentane-1-carboxamide], the midpoint of the response under setting [1], the EC50, lay at 2440 nM.

`CC(C)(C)c1noc(C23CCC(CN(C(=O)C45CC(F)(C4)C5)c4cccc(-c5cnc(C(F)(F)F)nc5)c4)(CC2)CC3)n1` [Example 366, N-((4-(3-(tert-butyl)-1,2,4-oxadiazol-5-yl)bicyclo[2.2.2]octan-1-yl)methyl)-3-fluoro-N-(3-(2-(trifluoromethyl)pyrimidin-5-yl)phenyl)bicyclo[1.1.1]pentane-1-carboxamide] had a concentration giving a half-maximal response (EC50) under setting [1] of 454 nM.

Turning to `CC(C)(O)c1ccc(-c2cccc(N(CC34CCC(c5noc(C(F)(F)F)n5)(CC3)CC4)C(=O)NCC3CC4(CC4)C3)c2)cc1` [Example 614, 1-(4′-(2-hydroxypropan-2-yl)-[1,1′-biphenyl]-3-yl)-3-(spiro[2.3]hexan-5-ylmethyl)-1-((4-(5-(trifluoromethyl)-1,2,4-oxadiazol-3-yl)bicyclo[2.2.2]octan-1-yl)methyl)urea], the EC50 under setting [1] was determined as 171 nM.

On to `CCOc1ccc(-c2cccc(N(CC34CCC(c5nc(C(C)C)no5)(CC3)CC4)C(=O)C34CC(F)(C3)C4)c2)cc1` [Example 375, N-(4′-ethoxy-[1,1′-biphenyl]-3-yl)-3-fluoro-N-((4-(3-isopropyl-1,2,4-oxadiazol-5-yl)bicyclo[2.2.2]octan-1-yl)methyl)bicyclo[1.1.1]pentane-1-carboxamide], for which, under setting [1], the EC50 is 61 nM.

With `CC(C)(F)c1nc(C23CCC(CN(C(=O)OC4CCC(F)(F)CC4)c4cc(-c5ccc(OC(F)F)cc5)c(F)cn4)(CC2)CC3)no1` [Example 631, 4,4-difluorocyclohexyl (4-(4-(difluoromethoxy)phenyl)-5-fluoropyridin-2-yl) ((4-(5-(2-fluoropropan-2-yl)-1,2,4-oxadiazol-3-yl)bicyclo[2.2.2]octan-1-yl)methyl) carbamate], the midpoint of the response under setting [1], the EC50, lay at 117 nM.
